Reference: EPA's ToxRefDB 2

Legend:
[1] = system: rabbit; conditions: Prenatal developmental toxicity study, new zealand white, Oral, Gavage/Intubation, dose end: 19 GD
[2] = system: rat; conditions: Subchronic oral toxicity in rodents, wistar, [Not Specified], dose end: 90 day, group: systemic
[3] = system: rat; conditions: Combined chronic toxicity/carcinogenicity, sprague dawley, Oral, Feed, dose end: 2 year, group: systemic
[4] = system: rat; conditions: Prenatal developmental toxicity study, wistar, Oral, Gavage/Intubation, dose end: 15 GD
[5] = system: rat; conditions: Multigenerational reproductive toxicity study, wistar, Oral, Feed, dose end: 2 generation
[6] = system: dog; conditions: Chronic toxicity; beagle; Oral; Capsule; dose end: 52 week; group: systemic; systemic / clinical chemistry / alkaline phosphatase (alp/alk) / alkaline phosphatase (alp/alk) + systemic / clinical chemistry / …
[7] = system: mouse; conditions: Combined chronic toxicity/carcinogenicity, cd1, Oral, Feed, dose end: 2 year, group: systemic
[8] = system: rat; conditions: Prenatal developmental toxicity study, other, Oral, Feed, dose end: 15 GD
[9] = system: dog; conditions: Chronic toxicity, beagle, Oral, Feed, dose end: 12 month, group: systemic
[10] = system: rat; conditions: Multigenerational reproductive toxicity study, sprague dawley, Oral, Feed, dose end: 3 generation
[11] = system: mouse; conditions: Carcinogenicity; cd1; Oral; Feed; dose end: 24 month; group: systemic; systemic / hematology / methemoglobin / methemoglobin + systemic / in life observation / body weight / body weight + systemic / in life …
[12] = system: rat; conditions: Combined chronic toxicity/carcinogenicity; sprague dawley; Oral; Feed; dose end: 2 year; group: systemic; systemic / in life observation / body weight / body weight + systemic / in life observation / body weight / body weight gain + systemic / …
[13] = system: rat; conditions: Multigenerational reproductive toxicity study, other, Oral, Feed, dose end: 2 generation
[14] = system: rabbit; conditions: Prenatal developmental toxicity study, new zealand white, Oral, Gavage/Intubation, dose end: 19 GD; remark: listed apart in the source
[15] = group: developmental, developmental / developmental malformation / bone / short supernumerary + developmental / developmental malformation / bone / full …
[16] = group: maternal, systemic / in life observation / body weight / body weight + systemic / in life observation / body weight / body weight gain + systemic / in…
[17] = systemic / clinical chemistry / aminopyrine-n-demethylase / aminopyrine-n-demethylase + systemic / organ weight / liver / absolute + …
[18] = systemic / urinalysis / volume / volume
[19] = systemic / pathology microscopic / liver / hypertrophy
[20] = group: developmental, developmental / developmental malformation / mouth / jaw / cleft palate
[21] = group: maternal, systemic / in life observation / body weight / body weight gain
[22] = group: maternal, systemic / in life observation / body weight / body weight gain + systemic / in life observation / clinical signs / urogenital staining + …
[23] = group: offspring, systemic / in life observation / clinical signs / red or crusty deposits around eyes, ears, nose, or mouth + systemic / pathology gross / …
[24] = group: parental, systemic / in life observation / body weight / body weight gain + systemic / in life observation / food consumption / food consumption + …
[25] = group: developmental, developmental / developmental malformation / bone / bipartite ossification + developmental / developmental malformation / bone / delayed …
[26] = group: maternal, systemic / in life observation / body weight / body weight + systemic / in life observation / food consumption / food consumption + …
[27] = systemic / hematology / methemoglobin / methemoglobin + systemic / hematology / sulphemoglobin / sulphemoglobin
[28] = systemic / hematology / methemoglobin / methemoglobin + systemic / hematology / sulphemoglobin / sulphemoglobin + systemic / clinical …
[29] = group: offspring, developmental / offspring survival late / viability index / viability index + systemic / in life observation / body weight / offspring (pup…
[30] = group: parental, systemic / in life observation / body weight / body weight + systemic / in life observation / body weight / body weight gain
[31] = group: reproductive, reproductive / reproductive performance / fertility / fertility
[32] = group: offspring, systemic / in life observation / body weight / offspring (pup) weight + developmental / developmental malformation / diaphragm / hernia + …
[33] = group: parental, systemic / in life observation / body weight / body weight gain + systemic / in life observation / body weight / body weight + systemic / in…
[34] = group: reproductive, reproductive / offspring survival early / birth index / live birth index
[35] = group: developmental, developmental / developmental malformation / bone / [other] + developmental / developmental malformation / bone / hole(s) + developmental / …
[36] = group: maternal, systemic / in life observation / body weight / body weight gain + reproductive / reproductive performance / aborted / aborted + systemic / …

Compound: CC(C)(C)[C@H](O)[C@H](Cc1ccc(Cl)cc1)n1cncn1 [Paclobutrazol]
- LEL [1, 15]: 125 mg/kg/day
- LOAEL [1, 15]: 125 mg/kg/day
- NEL [1, 15]: 75 mg/kg/day
- NOAEL [1, 15]: 75 mg/kg/day
- LEL [1, 16]: 125 mg/kg/day
- LOAEL [1, 16]: 125 mg/kg/day
- NEL [1, 16]: 75 mg/kg/day
- NOAEL [1, 16]: 75 mg/kg/day
- LOAEL [2, 17]: 62.5 mg/kg/day
- NOAEL [2, 17]: 12.5 mg/kg/day
- LEL [2, 18]: 2.5 mg/kg/day
- NEL [2, 18]: < 2.5 mg/kg/day
- LEL ([3]; systemic / clinical chemistry / triglycerides / triglycerides): 12.5 mg/kg/day
- LOAEL [3, 19]: 62.5 mg/kg/day
- NOAEL [3, 19]: 12.5 mg/kg/day
- NEL ([3]; systemic / pathology microscopic / liver / hypertrophy + systemic / clinical chemistry / triglycerides / triglycerides + systemic / …): 2.5 mg/kg/day
- LOAEL ([4]; group: developmental, developmental / developmental malformation / bone / incomplete ossification + developmental / developmental malformation / bone / unossified): 100 mg/kg/day
- NOAEL ([4]; group: developmental, developmental / developmental malformation / bone / incomplete ossification + developmental / developmental malformation / bone / unossified…): 40 mg/kg/day
- LEL [4, 20]: 40 mg/kg/day
- NEL [4, 20]: < 40 mg/kg/day
- LEL [4, 21]: 100 mg/kg/day
- LOAEL [4, 21]: 100 mg/kg/day
- NEL [4, 22]: 40 mg/kg/day
- NOAEL [4, 22]: 40 mg/kg/day
- LEL [5, 23]: 12.5 mg/kg/day
- LOAEL [5, 23]: 12.5 mg/kg/day
- NEL [5, 23]: 2.5 mg/kg/day
- NOAEL [5, 23]: 2.5 mg/kg/day
- NEL ([5]; group: parental, systemic / in life observation / body weight / body weight + systemic / in life observation / body weight / body weight gain + systemic / in…): 2.5 mg/kg/day
- LOAEL [5, 24]: > 62.5 mg/kg/day
- NOAEL [5, 24]: ≥ 62.5 mg/kg/day
- LEL ([5]; group: parental, systemic / in life observation / clinical signs / red or crusty deposits around eyes, ears, nose, or mouth + systemic / pathology gross / …): 12.5 mg/kg/day
- LEL [6]: 75 mg/kg/day
- LOAEL [6]: 75 mg/kg/day
- NEL [6]: 15 mg/kg/day
- NOAEL [6]: 15 mg/kg/day
- LEL ([7]; systemic / organ weight / kidney / relative to body weight): 18.8 mg/kg/day
- NEL ([7]; systemic / organ weight / kidney / relative to body weight + systemic / organ weight / kidney / absolute + systemic / organ weight / liver…): 3.75 mg/kg/day
- LOAEL ([7]; systemic / pathology microscopic / liver / steatosis): 112 mg/kg/day
- NOAEL ([7]; systemic / pathology microscopic / liver / steatosis + systemic / organ weight / liver / absolute + systemic / organ weight / liver / …): 18.8 mg/kg/day

Compound: CON(C)C(=O)Nc1ccc(Cl)c(Cl)c1 [Linuron]
- LEL [8, 25]: 50 mg/kg/day
- LOAEL [8, 25]: 50 mg/kg/day
- NEL [8, 25]: 12 mg/kg/day
- NOAEL [8, 25]: 12 mg/kg/day
- LOAEL ([8]; group: maternal, systemic / in life observation / body weight / body weight + systemic / in life observation / food consumption / food consumption): 50 mg/kg/day
- LEL [8, 26]: 50 mg/kg/day
- NEL [8, 26]: 12 mg/kg/day
- NOAEL [8, 26]: 12 mg/kg/day
- LEL [9, 27]: 3.49 mg/kg/day
- LOAEL [9, 27]: 3.49 mg/kg/day
- NEL [9, 28]: 0.77 mg/kg/day
- NOAEL [9, 28]: 0.77 mg/kg/day
- LEL [10, 29]: 44 mg/kg/day
- LOAEL [10, 29]: 44 mg/kg/day
- NEL [10, 29]: 9 mg/kg/day
- NOAEL [10, 29]: 9 mg/kg/day
- LEL ([10]; group: parental, systemic / in life observation / body weight / body weight): 9 mg/kg/day
- LOAEL ([10]; group: parental, systemic / in life observation / body weight / body weight + systemic / hematology / erythrocyte (rbc) count differential / erythrocyte (rbc…): 10 mg/kg/day
- NEL [10, 30]: 2 mg/kg/day
- NOAEL [10, 30]: 2 mg/kg/day
- LEL [10, 31]: 44 mg/kg/day
- LOAEL [10, 31]: 44 mg/kg/day
- NEL [10, 31]: 9 mg/kg/day
- NOAEL [10, 31]: 9 mg/kg/day
- LEL [11]: 261 mg/kg/day
- LOAEL [11]: 261 mg/kg/day
- NEL [11]: 23 mg/kg/day
- NOAEL [11]: 23 mg/kg/day
- LEL [12]: 5.11 mg/kg/day
- LOAEL [12]: 5.11 mg/kg/day
- NEL [12]: 2.09 mg/kg/day
- NOAEL [12]: 2.09 mg/kg/day
- LEL ([13]; group: offspring, systemic / in life observation / body weight / offspring (pup) weight): 7.77 mg/kg/day
- LOAEL [13, 32]: > 54 mg/kg/day
- NEL [13, 32]: 0.948 mg/kg/day
- NOAEL [13, 32]: ≥ 54 mg/kg/day
- LOAEL ([13]; group: parental, systemic / in life observation / body weight / body weight gain): 5.83 mg/kg/day
- NEL [13, 33]: 0.736 mg/kg/day
- NOAEL [13, 33]: 0.736 mg/kg/day
- LEL ([13]; group: parental, systemic / in life observation / body weight / body weight gain + systemic / in life observation / food consumption / food consumption): 5.83 mg/kg/day
- LEL [13, 34]: 54 mg/kg/day
- LOAEL [13, 34]: > 54 mg/kg/day
- NEL [13, 34]: 7.77 mg/kg/day
- NOAEL [13, 34]: ≥ 54 mg/kg/day
- LEL [14, 35]: 100 mg/kg/day
- LOAEL [14, 35]: 100 mg/kg/day
- NEL [14, 35]: 25 mg/kg/day
- NOAEL [14, 35]: 25 mg/kg/day
- LEL [14, 21]: 25 mg/kg/day
- LOAEL [14, 21]: 25 mg/kg/day
- NEL [14, 36]: 5 mg/kg/day
- NOAEL [14, 36]: 5 mg/kg/day
